Results from ChEMBL document CHEMBL1147190, “Acid-catalyzed synthesis of oxathiolone fused chalcones. Comparison of their activity toward various microorganisms and human cancer cells line” (Eur J Med Chem, 2007).
Converted amounts (≈) assume the structure as drawn.

Each molecule was assayed on HeLa (assay: Cytotoxicity against human HeLa S3 cells after 120 hrs by MTT assay). Conditions: not given.
Format: functional, cell-based
`COc1ccc2oc(=O)sc2c1C(=O)/C=C/c1ccc(OCCN(C)C)cc1` was tested, and the IC50 was 8.3 µM. `COc1ccc2oc(=O)sc2c1C(=O)/C=C/c1ccc(N(C)C)cc1` gave an IC50 of over 100 µM. With `COc1ccc(/C=C/C(=O)c2c(OC)ccc3oc(=O)sc23)cc1OC` the IC50 was 14.1 µM. In the case of `COc1ccc2oc(=O)sc2c1C(=O)/C=C/c1ccc(Cl)cc1`, the IC50 is reported as 5.2 µM. For `COc1ccc2oc(=O)sc2c1C(=O)/C=C/c1ccccc1`, the IC50 was 8.4 µM.

Each molecule was assayed on Candida albicans (assay: Antifungal activity against Candida albicans ATCC 10261 after 48 hrs by serial dilution microtiter plate method). Conditions: ATCC 10261, 48 h.
Format: functional, organism-based
In the case of `COc1ccc2oc(=O)sc2c1C(=O)/C=C/c1ccc(OCCN(C)C)cc1`, the IC50 is reported as 125 µg/mL (≈ 313 µM). For `COc1ccc2oc(=O)sc2c1C(=O)/C=C/c1ccc(OCCN2CCOCC2)cc1`, the IC50 was 250 µg/mL (≈ 566 µM). Work on `COc1ccc2oc(=O)sc2c1C(=O)/C=C/c1ccccc1Cl` yielded an IC50 of over 1000 µg/mL. `COc1ccc2oc(=O)sc2c1C(=O)/C=C/c1ccc(N(C)C)cc1` showed an IC50 of over 1000 µg/mL. Work on `COc1ccc(/C=C/C(=O)c2c(OC)ccc3oc(=O)sc23)cc1` yielded an IC50 of over 1000 µg/mL. In the case of `COc1ccc2oc(=O)sc2c1C(=O)/C=C/c1ccc(Br)cc1`, the IC50 is reported as over 1000 µg/mL. `COc1ccc(/C=C/C(=O)c2c(OC)ccc3oc(=O)sc23)cc1OC` was tested, and the IC50 was over 1000 µg/mL. `COc1ccc2oc(=O)sc2c1C(=O)/C=C/c1ccc(Cl)cc1` gave an IC50 of 62.5 µg/mL (≈ 180 µM). `COc1ccc2oc(=O)sc2c1C(=O)/C=C/c1ccc([N+](=O)[O-])cc1` showed an IC50 of over 1000 µg/mL. `COc1ccc2oc(=O)sc2c1C(=O)/C=C/c1ccccc1` showed an IC50 of over 1000 µg/mL. Work on `COc1ccc2oc(=O)sc2c1C(=O)/C=C/c1cccc(Cl)c1` yielded an IC50 of over 1000 µg/mL.

Each molecule was assayed on Salmonella typhimurium (assay: Bacteriostatic activity against Salmonella Typhimurium PCM 2180 after 24 hrs by serial dilution microtiter plate method). Conditions: Salmonella enterica.
Format: functional, organism-based, Salmonella enterica subsp. enterica serovar Typhimurium
`COc1ccc2oc(=O)sc2c1C(=O)/C=C/c1ccc(OCCN(C)C)cc1` gave an IC50 of 250 µg/mL (≈ 626 µM). For `COc1ccc2oc(=O)sc2c1C(=O)/C=C/c1ccc(OCCN2CCOCC2)cc1`, the IC50 was 250 µg/mL (≈ 566 µM). With `COc1ccc2oc(=O)sc2c1C(=O)/C=C/c1ccccc1Cl` the IC50 was over 1000 µg/mL. `COc1ccc2oc(=O)sc2c1C(=O)/C=C/c1ccc(N(C)C)cc1` showed an IC50 of over 1000 µg/mL. Work on `COc1ccc(/C=C/C(=O)c2c(OC)ccc3oc(=O)sc23)cc1` yielded an IC50 of over 1000 µg/mL. `COc1ccc2oc(=O)sc2c1C(=O)/C=C/c1ccc(Br)cc1` was tested, and the IC50 was over 1000 µg/mL. In the case of `COc1ccc(/C=C/C(=O)c2c(OC)ccc3oc(=O)sc23)cc1OC`, the IC50 is reported as over 1000 µg/mL. With `COc1ccc2oc(=O)sc2c1C(=O)/C=C/c1ccc(Cl)cc1` the IC50 was over 1000 µg/mL. `COc1ccc2oc(=O)sc2c1C(=O)/C=C/c1ccc([N+](=O)[O-])cc1` showed an IC50 of over 1000 µg/mL. With `COc1ccc2oc(=O)sc2c1C(=O)/C=C/c1ccccc1` the IC50 was over 1000 µg/mL. Molecule `COc1ccc2oc(=O)sc2c1C(=O)/C=C/c1cccc(Cl)c1` has an IC50 of over 1000 µg/mL.

What follows are molecules tested on Escherichia coli (assay: Bacteriostatic activity against Escherichia coli ATCC 11775 after 24 hrs by serial dilution microtiter plate method). Conditions: ATCC 11775, 24 h.
Format: functional, organism-based
`COc1ccc2oc(=O)sc2c1C(=O)/C=C/c1ccc(OCCN(C)C)cc1` gave an IC50 of 125 µg/mL (≈ 313 µM). Work on `COc1ccc2oc(=O)sc2c1C(=O)/C=C/c1ccc(OCCN2CCOCC2)cc1` yielded an IC50 of 125 µg/mL (≈ 283 µM). In the case of `COc1ccc2oc(=O)sc2c1C(=O)/C=C/c1ccccc1Cl`, the IC50 is reported as over 1000 µg/mL. With `COc1ccc2oc(=O)sc2c1C(=O)/C=C/c1ccc(N(C)C)cc1` the IC50 was over 1000 µg/mL. For `COc1ccc(/C=C/C(=O)c2c(OC)ccc3oc(=O)sc23)cc1`, the IC50 was over 1000 µg/mL. Molecule `COc1ccc2oc(=O)sc2c1C(=O)/C=C/c1ccc(Br)cc1` has an IC50 of over 1000 µg/mL. `COc1ccc(/C=C/C(=O)c2c(OC)ccc3oc(=O)sc23)cc1OC` gave an IC50 of over 1000 µg/mL. `COc1ccc2oc(=O)sc2c1C(=O)/C=C/c1ccc(Cl)cc1` gave an IC50 of over 1000 µg/mL. `COc1ccc2oc(=O)sc2c1C(=O)/C=C/c1ccc([N+](=O)[O-])cc1` gave an IC50 of over 1000 µg/mL. `COc1ccc2oc(=O)sc2c1C(=O)/C=C/c1ccccc1` was tested, and the IC50 was over 1000 µg/mL. In the case of `COc1ccc2oc(=O)sc2c1C(=O)/C=C/c1cccc(Cl)c1`, the IC50 is reported as over 1000 µg/mL.

What follows are molecules tested on Proteus vulgaris (assay: Bacteriostatic activity against Proteus vulgaris ATCC 6380 after 24 hrs by serial dilution microtiter plate method). Conditions: ATCC 6380, 24 h.
Format: functional, organism-based
`COc1ccc2oc(=O)sc2c1C(=O)/C=C/c1ccc(OCCN(C)C)cc1` showed an IC50 of 125 µg/mL (≈ 313 µM). For `COc1ccc2oc(=O)sc2c1C(=O)/C=C/c1ccc(OCCN2CCOCC2)cc1`, the IC50 was 125 µg/mL (≈ 283 µM). With `COc1ccc2oc(=O)sc2c1C(=O)/C=C/c1ccccc1Cl` the IC50 was over 1000 µg/mL. For `COc1ccc2oc(=O)sc2c1C(=O)/C=C/c1ccc(N(C)C)cc1`, the IC50 was over 1000 µg/mL. Work on `COc1ccc(/C=C/C(=O)c2c(OC)ccc3oc(=O)sc23)cc1` yielded an IC50 of over 1000 µg/mL. Molecule `COc1ccc2oc(=O)sc2c1C(=O)/C=C/c1ccc(Br)cc1` has an IC50 of over 1000 µg/mL. `COc1ccc(/C=C/C(=O)c2c(OC)ccc3oc(=O)sc23)cc1OC` was tested, and the IC50 was over 1000 µg/mL. `COc1ccc2oc(=O)sc2c1C(=O)/C=C/c1ccc(Cl)cc1` gave an IC50 of over 1000 µg/mL. With `COc1ccc2oc(=O)sc2c1C(=O)/C=C/c1ccc([N+](=O)[O-])cc1` the IC50 was over 1000 µg/mL. Work on `COc1ccc2oc(=O)sc2c1C(=O)/C=C/c1ccccc1` yielded an IC50 of over 1000 µg/mL. For `COc1ccc2oc(=O)sc2c1C(=O)/C=C/c1cccc(Cl)c1`, the IC50 was over 1000 µg/mL.

What follows are molecules tested on Staphylococcus aureus (assay: Bacteriostatic activity against Staphylococcus aureus ATCC 9144 after 24 hrs by serial dilution microtiter plate method). Conditions: ATCC 9144, 24 h.
Format: functional, organism-based
`COc1ccc2oc(=O)sc2c1C(=O)/C=C/c1ccc(OCCN(C)C)cc1` was tested, and the IC50 was 15.6 µg/mL (≈ 39.1 µM). Molecule `COc1ccc2oc(=O)sc2c1C(=O)/C=C/c1ccc(OCCN2CCOCC2)cc1` has an IC50 of 31.2 µg/mL (≈ 70.7 µM). Work on `COc1ccc2oc(=O)sc2c1C(=O)/C=C/c1ccccc1Cl` yielded an IC50 of over 1000 µg/mL. `COc1ccc2oc(=O)sc2c1C(=O)/C=C/c1ccc(N(C)C)cc1` showed an IC50 of over 1000 µg/mL. For `COc1ccc(/C=C/C(=O)c2c(OC)ccc3oc(=O)sc23)cc1`, the IC50 was over 1000 µg/mL. Work on `COc1ccc2oc(=O)sc2c1C(=O)/C=C/c1ccc(Br)cc1` yielded an IC50 of over 1000 µg/mL. With `COc1ccc(/C=C/C(=O)c2c(OC)ccc3oc(=O)sc23)cc1OC` the IC50 was over 1000 µg/mL. With `COc1ccc2oc(=O)sc2c1C(=O)/C=C/c1ccc(Cl)cc1` the IC50 was 7.8 µg/mL (≈ 22.5 µM). `COc1ccc2oc(=O)sc2c1C(=O)/C=C/c1ccc([N+](=O)[O-])cc1` showed an IC50 of over 1000 µg/mL. Molecule `COc1ccc2oc(=O)sc2c1C(=O)/C=C/c1ccccc1` has an IC50 of over 1000 µg/mL. `COc1ccc2oc(=O)sc2c1C(=O)/C=C/c1cccc(Cl)c1` showed an IC50 of over 1000 µg/mL.

What follows are molecules tested on Micrococcus luteus (assay: Bacteriostatic activity against Micrococcus luteus after 24 hrs by serial dilution microtiter plate method). Conditions: not given.
Format: functional, organism-based
`COc1ccc2oc(=O)sc2c1C(=O)/C=C/c1ccc(OCCN(C)C)cc1` was tested, and the IC50 was 15.6 µg/mL (≈ 39.1 µM). Work on `COc1ccc2oc(=O)sc2c1C(=O)/C=C/c1ccc(OCCN2CCOCC2)cc1` yielded an IC50 of 31.2 µg/mL (≈ 70.7 µM). With `COc1ccc2oc(=O)sc2c1C(=O)/C=C/c1ccccc1Cl` the IC50 was over 1000 µg/mL. `COc1ccc2oc(=O)sc2c1C(=O)/C=C/c1ccc(N(C)C)cc1` was tested, and the IC50 was over 1000 µg/mL. For `COc1ccc(/C=C/C(=O)c2c(OC)ccc3oc(=O)sc23)cc1`, the IC50 was over 1000 µg/mL. `COc1ccc2oc(=O)sc2c1C(=O)/C=C/c1ccc(Br)cc1` showed an IC50 of over 1000 µg/mL. In the case of `COc1ccc(/C=C/C(=O)c2c(OC)ccc3oc(=O)sc23)cc1OC`, the IC50 is reported as over 1000 µg/mL. `COc1ccc2oc(=O)sc2c1C(=O)/C=C/c1ccc(Cl)cc1` was tested, and the IC50 was 15.6 µg/mL (≈ 45 µM). In the case of `COc1ccc2oc(=O)sc2c1C(=O)/C=C/c1ccc([N+](=O)[O-])cc1`, the IC50 is reported as over 1000 µg/mL. For `COc1ccc2oc(=O)sc2c1C(=O)/C=C/c1ccccc1`, the IC50 was over 1000 µg/mL. Work on `COc1ccc2oc(=O)sc2c1C(=O)/C=C/c1cccc(Cl)c1` yielded an IC50 of over 1000 µg/mL.

These molecules were tested on Mycobacterium tuberculosis (assay: Tuberculostatic activity against Mycobacterium tuberculosis H37Rv). Conditions: not given.
Format: functional
`COc1ccc2oc(=O)sc2c1C(=O)/C=C/c1ccc(OCCN(C)C)cc1` was tested, and the MIC was 100 µg/mL (≈ 250 µM). `COc1ccc2oc(=O)sc2c1C(=O)/C=C/c1ccc(OCCN2CCOCC2)cc1` showed an MIC of 50 µg/mL (≈ 113 µM). `COc1ccc2oc(=O)sc2c1C(=O)/C=C/c1ccccc1Cl` showed an MIC of 50 µg/mL (≈ 144 µM). `COc1ccc2oc(=O)sc2c1C(=O)/C=C/c1ccc(N(C)C)cc1` showed an MIC of over 100 µg/mL. `COc1ccc(/C=C/C(=O)c2c(OC)ccc3oc(=O)sc23)cc1` was tested, and the MIC was over 100 µg/mL. `COc1ccc2oc(=O)sc2c1C(=O)/C=C/c1ccc(Br)cc1` showed an MIC of over 100 µg/mL. `COc1ccc(/C=C/C(=O)c2c(OC)ccc3oc(=O)sc23)cc1OC` gave an MIC of over 100 µg/mL. `COc1ccc2oc(=O)sc2c1C(=O)/C=C/c1ccc(Cl)cc1` was tested, and the MIC was 100 µg/mL (≈ 288 µM). Molecule `COc1ccc2oc(=O)sc2c1C(=O)/C=C/c1ccc([N+](=O)[O-])cc1` has an MIC of over 100 µg/mL. With `COc1ccc2oc(=O)sc2c1C(=O)/C=C/c1ccccc1` the MIC was over 100 µg/mL. `COc1ccc2oc(=O)sc2c1C(=O)/C=C/c1cccc(Cl)c1` was tested, and the MIC was 25 µg/mL (≈ 72.1 µM).

The molecules below were run on Mycobacterium kansasii (assay: Tuberculostatic activity against Mycobacterium kansasii). Conditions: not given.
Format: functional
With `COc1ccc2oc(=O)sc2c1C(=O)/C=C/c1ccc(OCCN(C)C)cc1` the MIC was 100 µg/mL (≈ 250 µM). `COc1ccc2oc(=O)sc2c1C(=O)/C=C/c1ccc(OCCN2CCOCC2)cc1` was tested, and the MIC was over 100 µg/mL. `COc1ccc2oc(=O)sc2c1C(=O)/C=C/c1ccccc1Cl` showed an MIC of over 100 µg/mL. `COc1ccc2oc(=O)sc2c1C(=O)/C=C/c1ccc(N(C)C)cc1` gave an MIC of over 100 µg/mL. With `COc1ccc(/C=C/C(=O)c2c(OC)ccc3oc(=O)sc23)cc1` the MIC was over 100 µg/mL. Molecule `COc1ccc2oc(=O)sc2c1C(=O)/C=C/c1ccc(Br)cc1` has an MIC of over 100 µg/mL. With `COc1ccc(/C=C/C(=O)c2c(OC)ccc3oc(=O)sc23)cc1OC` the MIC was over 100 µg/mL. `COc1ccc2oc(=O)sc2c1C(=O)/C=C/c1ccc(Cl)cc1` showed an MIC of over 100 µg/mL. With `COc1ccc2oc(=O)sc2c1C(=O)/C=C/c1ccc([N+](=O)[O-])cc1` the MIC was over 100 µg/mL. `COc1ccc2oc(=O)sc2c1C(=O)/C=C/c1ccccc1` gave an MIC of over 100 µg/mL. `COc1ccc2oc(=O)sc2c1C(=O)/C=C/c1cccc(Cl)c1` showed an MIC of 100 µg/mL (≈ 288 µM).
